The record followed here is US5130327A, “Indole derivatives” (Consejo Superior de Investigaciones Cientificas, priority 1989, dated 1992).

Some results are limits rather than exact numbers.

In the first test the target is T1, Bovine Brain MAO A (Bos taurus, UniProt P21398).
T1 construct: in vitro activity of MAO from bovine brain mitochondria; from tissue; host or cells: bovine brain mitochondria
T1 sequence (P21398 1-527): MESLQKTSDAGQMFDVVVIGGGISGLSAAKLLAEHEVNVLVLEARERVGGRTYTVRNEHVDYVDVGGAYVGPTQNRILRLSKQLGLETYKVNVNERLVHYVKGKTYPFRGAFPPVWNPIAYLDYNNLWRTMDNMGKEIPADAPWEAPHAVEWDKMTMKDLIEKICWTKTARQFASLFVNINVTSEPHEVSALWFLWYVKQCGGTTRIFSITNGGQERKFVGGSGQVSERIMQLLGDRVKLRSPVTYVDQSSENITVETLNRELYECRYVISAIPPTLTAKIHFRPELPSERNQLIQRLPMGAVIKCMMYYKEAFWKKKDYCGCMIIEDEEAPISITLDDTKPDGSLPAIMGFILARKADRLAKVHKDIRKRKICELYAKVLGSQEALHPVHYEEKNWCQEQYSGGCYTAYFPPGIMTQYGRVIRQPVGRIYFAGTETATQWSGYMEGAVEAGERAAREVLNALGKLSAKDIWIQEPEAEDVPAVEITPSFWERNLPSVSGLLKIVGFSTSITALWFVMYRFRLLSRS
Put plainly: In vitro inhibition of MAO from bovine brain mitochondria, tyramine as substrate (form A). The test is classed as biochemical. Conditions: pI50 = -log [I50], molar. From the text:
(§1) The following table illustrates the structure of particular compounds of the invention (1). It also gives specific pI50 values where pI50 =-log [I50 ] where [I50 ] is the molar concentration of test compound which inhibits 50% of the in vitro activity of MAO from bovine brain mitochondria using tyramine as substrate.
As usually defined, the IC50 is the concentration at which inhibition is half-maximal. Take `COc1ccc2c(c1)cc(CN)n2C` [(u), 2-(1-methyl-5-methoxy-indolyl)methylamine]: inhibition was half-maximal at 18200 nM (IC50).

The molecule `C#CCN(C)Cc1cc2cc(OC)ccc2[nH]1` [(c), N-methyl-N-propargyl-2-(5-methoxy-indolyl)methylamine] had an IC50 of 7.08 nM.

The molecule `CC#CCN(C)Cc1cc2cc(OC)ccc2[nH]1` [(f), N-(2-butynyl)-N-methyl-2-(5-methoxy-indolyl)methylamine] gave a half-maximal inhibitory concentration (IC50) of 8.91 nM.

`CC#CCNCc1cc2cc(OC)ccc2n1C` [(m), N-(2-butynyl)-2-(1-methyl-5-methoxy-indolyl)methylamine] had an IC50 of 129 nM.

In turn, `C=C=CCN(C)Cc1cc2cc(OC)ccc2n1C` [(r), N-(2,3-butadienyl)-N-methyl-2-(1-methyl-5-methoxy-indolyl)-methylamine] showed an IC50 of 5.37 nM.

`CC#CCN(CC#CC)Cc1cc2cc(OC)ccc2[nH]1` [(e), N,N-bis(2-butynyl)-2-(5-methoxy-indolyl)methylamine] displayed an IC50 of at least 20000 nM.

Consider `CC#CCNCc1cc2cc(OC)ccc2[nH]1` [(d), N-(2-butynyl)-2-(5-methoxy-indolyl)methylamine], for which the IC50 was 631 nM.

For `C=C=CCNCc1cc2cc(OC)ccc2[nH]1` [(g), N-(2,3-butadienyl)-2-(5-methoxy-indolyl)methylamine], it took 44.7 nM to reach half-maximal inhibition (IC50).

The molecule `CC#CCN(CC#CC)Cc1cc2cc(OC)ccc2n1C` [(n), N,N-bis(2-butynyl)-2-(1-methyl-5-methoxy-indolyl)methylamine] had a half-inhibitory concentration (IC50) of 3980 nM.

As for `C#CCN(CC#C)Cc1cc2cc(OC)ccc2n1C` [(k), N,N-bis(propargyl)-2-(1-methyl-5-methoxy-indolyl)methylamine], the IC50 is 2820 nM.

The molecule `CNCc1cc2cc(OC)ccc2n1C` [(v), N-methyl-2-(1-methyl-5-methoxy-indolyl)methylamine] showed an IC50 of 129000 nM.

Molecule `C=C=CCN(C)Cc1cc2cc(OC)ccc2[nH]1` [(i), N-(2,3-butadienyl)-N-methyl-2-(5-methoxy-indolyl)methylamine] showed a concentration for half-maximal inhibition (IC50) of 17.8 nM.

For the molecule `C=C=CCN(CC=C=C)Cc1cc2cc(OC)ccc2n1C` [(q), N,N-bis(2,3-butadienyl)-2-(1-methyl-5-methoxy-indolyl)methylamine], 302 nM corresponded to half-maximal inhibition (IC50).

In the case of `C=C=CCNCc1cc2cc(OC)ccc2n1C` [(p), N-(2,3-butadienyl)-2-(1-methyl-5-methoxy-indolyl)methylamine], the midpoint of inhibition, the IC50, lay at 21.9 nM.

`C#CCNCc1cc2cc(OC)ccc2n1C` [(j), N-propargyl-2-(1-methyl-5-methoxy-indolyl)methylamine] showed an IC50 of 20.9 nM.

As to `C#CCNCc1cc2cc(OC)ccc2[nH]1` [(a), N-propargyl-2-(5-methoxy-indolyl)methylamine], the IC50 is 219 nM.

`CC#CCN(C)Cc1cc2cc(OC)ccc2n1C` [(o), N-(2-butynyl)-N-methyl-2-(1-methyl-5-methoxy-indolyl)methylamine] had an IC50 of 35.5 nM.

The molecule `C=C=CCN(CC=C=C)Cc1cc2cc(OC)ccc2[nH]1` [(h), N,N-bis(2,3-butadienyl)-2-(5-methoxy-indolyl)methylamine] had an IC50 of 447 nM.

The target in a further test is T2, Bovine Brain MAO B (Bos taurus, UniProt P56560).
T2 construct: in vitro activity of MAO from bovine brain mitochondria; from tissue; host or cells: bovine brain mitochondria
T2 sequence (P56560 1-520): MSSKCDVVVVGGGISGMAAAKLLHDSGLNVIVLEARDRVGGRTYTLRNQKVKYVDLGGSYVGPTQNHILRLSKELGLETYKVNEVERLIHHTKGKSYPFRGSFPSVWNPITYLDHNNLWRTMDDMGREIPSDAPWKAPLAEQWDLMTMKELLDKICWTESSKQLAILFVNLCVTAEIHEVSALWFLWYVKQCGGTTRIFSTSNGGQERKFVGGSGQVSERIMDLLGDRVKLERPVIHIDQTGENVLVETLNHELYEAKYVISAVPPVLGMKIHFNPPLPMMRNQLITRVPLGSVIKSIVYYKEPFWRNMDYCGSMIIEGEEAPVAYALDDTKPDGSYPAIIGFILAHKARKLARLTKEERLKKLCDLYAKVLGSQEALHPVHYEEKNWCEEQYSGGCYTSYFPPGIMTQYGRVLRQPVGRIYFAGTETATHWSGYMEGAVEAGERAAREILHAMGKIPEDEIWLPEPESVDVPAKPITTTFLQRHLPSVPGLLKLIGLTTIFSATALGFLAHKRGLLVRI
Kind of test: In vitro inhibition of MAO from bovine brain mitochondria, tyramine as substrate (form B). Format: biochemical. Details: key to Bovine Brain MAO, mark printed in place of a B value (nonselective): ns = nonselective. Conditions: one pI50 given, no separate A and B values.
Description: as §1
For `COc1ccc2c(c1)cc(CN)n2C` [(u), 2-(1-methyl-5-methoxy-indolyl)methylamine], the “Bovine Brain MAO, mark printed in place of a B value (nonselective)” value (“Bovine Brain MAO … (nonselective)” for short) is “ns”.

With `C#CCN(CC#C)Cc1cc2cc(OC)ccc2n1C` [(k), N,N-bis(propargyl)-2-(1-methyl-5-methoxy-indolyl)methylamine], the “Bovine Brain MAO … (nonselective)” value is given as “ns”.

Take `CNCc1cc2cc(OC)ccc2n1C` [(v), N-methyl-2-(1-methyl-5-methoxy-indolyl)methylamine]: the “Bovine Brain MAO … (nonselective)” value is “ns”.

Take `C=C=CCN(CC=C=C)Cc1cc2cc(OC)ccc2n1C` [(q), N,N-bis(2,3-butadienyl)-2-(1-methyl-5-methoxy-indolyl)methylamine]: the “Bovine Brain MAO … (nonselective)” value is given as “ns”.

On to `CC#CCN(C)Cc1cc2cc(OC)ccc2n1C` [(o), N-(2-butynyl)-N-methyl-2-(1-methyl-5-methoxy-indolyl)methylamine], for which the “Bovine Brain MAO … (nonselective)” value is given as “ns”.

On to `C=C=CCN(CC=C=C)Cc1cc2cc(OC)ccc2[nH]1` [(h), N,N-bis(2,3-butadienyl)-2-(5-methoxy-indolyl)methylamine], for which the “Bovine Brain MAO … (nonselective)” value is recorded as “ns”.

Still in this test, the particulars now being: pI50 = -log [I50], molar; bovine brain mitochondria, tyramine as substrate.
`C#CCN(C)Cc1cc2cc(OC)ccc2[nH]1` [(c), N-methyl-N-propargyl-2-(5-methoxy-indolyl)methylamine] gave an IC50 of 447 nM.

`CC#CCN(C)Cc1cc2cc(OC)ccc2[nH]1` [(f), N-(2-butynyl)-N-methyl-2-(5-methoxy-indolyl)methylamine] showed a half-inhibitory concentration (IC50) of 12900 nM.

With `CC#CCNCc1cc2cc(OC)ccc2n1C` [(m), N-(2-butynyl)-2-(1-methyl-5-methoxy-indolyl)methylamine], 79400 nM corresponded to half-maximal inhibition (IC50).

On to `C=C=CCN(C)Cc1cc2cc(OC)ccc2n1C` [(r), N-(2,3-butadienyl)-N-methyl-2-(1-methyl-5-methoxy-indolyl)-methylamine], for which the IC50 was 501 nM.

The molecule `CC#CCN(CC#CC)Cc1cc2cc(OC)ccc2[nH]1` [(e), N,N-bis(2-butynyl)-2-(5-methoxy-indolyl)methylamine] registered an IC50 of over 20000 nM.

Regarding `CC#CCNCc1cc2cc(OC)ccc2[nH]1` [(d), N-(2-butynyl)-2-(5-methoxy-indolyl)methylamine], the IC50 is over 331000 nM.

The molecule `C=C=CCNCc1cc2cc(OC)ccc2[nH]1` [(g), N-(2,3-butadienyl)-2-(5-methoxy-indolyl)methylamine] gave a half-maximal inhibitory concentration (IC50) of 2510 nM.

`CC#CCN(CC#CC)Cc1cc2cc(OC)ccc2n1C` [(n), N,N-bis(2-butynyl)-2-(1-methyl-5-methoxy-indolyl)methylamine] yielded an IC50 of over 501000 nM.

As to `C=C=CCN(C)Cc1cc2cc(OC)ccc2[nH]1` [(i), N-(2,3-butadienyl)-N-methyl-2-(5-methoxy-indolyl)methylamine], the 50% inhibitory concentration (IC50) is 5010 nM.

For the molecule `C=C=CCNCc1cc2cc(OC)ccc2n1C` [(p), N-(2,3-butadienyl)-2-(1-methyl-5-methoxy-indolyl)methylamine], it took 398 nM to reach half-maximal inhibition (IC50).

`C#CCNCc1cc2cc(OC)ccc2n1C` [(j), N-propargyl-2-(1-methyl-5-methoxy-indolyl)methylamine] had a half-inhibitory concentration (IC50) of 44700 nM.

For the molecule `C#CCNCc1cc2cc(OC)ccc2[nH]1` [(a), N-propargyl-2-(5-methoxy-indolyl)methylamine], half-maximal inhibition (IC50) required 110000 nM.
